Key:
in vitro [1] = conditions: human
HL-60 [2] = test: HL-60 differentiation potency; type: cell-based; conditions: Homo sapiens
HL-60 [3] = test: HL-60 differentiation potency; type: cell-based; conditions: Homo sapiens; remark: listed apart in the source
in vitro [4] = conditions: human; remark: listed apart in the source

IC50 (in vitro [1]) | EC50 (HL-60 [2]) | EC50 (HL-60 [3]) | IC50 (in vitro [4]) | SMILES
17.6 µM | 0.0882 µM |  |  | C[C@H]1[C@@H](Oc2ccc(OCCC(=O)O)cc2)O[C@@H]2O[C@@]3(C)CC[C@H]4[C@H](C)CC[C@@H]1[C@@]24OO3 [Compound 250, 3-(4-(((3R,5aS,6R,8aS, 9R,10S,12R, 12aR)-3,6,9-trimethyldeca-hydro-12H-3,12-epoxy[1,2]dioxepino[4,3-i]isochromen-10-yl)oxy)phenoxy) propanoic acid]
10 µM | 0.156 µM |  |  | C[C@H]1[C@H](OCc2ccc(C(=O)O)cc2C(F)(F)F)O[C@@H]2O[C@@]3(C)CC[C@H]4[C@H](C)CC[C@@H]1[C@@]24OO3 [Compound 195, 3-(trifluoromethyl)-4-((((3R,5aS,6R,8aS, 9R,10R,12R, 12aR)-3,6,9-trimethyldeca-hydro-12H-3,12-epoxy[1,2]dioxepino[4,3-i]isochromen-10-yl)oxy)methyl) benzoic acid]
 |  | 0.526 µM | > 20 µM | C[C@H]1[C@@H](OCCc2ccc(C(=O)O)cc2)O[C@@H]2O[C@@]3(C)CC[C@H]4[C@H](C)CC[C@@H]1[C@@]24OO3 [Compound 36, 4-(2-(((3R,5aS,6R,8aS, 9R,10S,12R, 12aR)-3,6,9-trimethyldeca-hydro-12H-3,12-epoxy[1,2]dioxepino[4,3-i]isochromen-10-yl)oxy)ethyl) benzoic acid]
 |  | 0.111 µM | 7 µM | C[C@H]1[C@H](OCCCc2ccc(C(=O)O)cc2F)O[C@@H]2O[C@@]3(C)CC[C@H]4[C@H](C)CC[C@@H]1[C@@]24OO3 [Compound 174, 3-fluoro-4-(3-(((3R,5aS,6R,8aS, 9R,10R,12R, 12aR)-3,6,9-trimethyldeca-hydro-12H-3,12-epoxy[1,2]dioxepino[4,3-i]isochromen-10-yl)oxy)propyl) benzoic acid]
 |  | 1.71 µM | 4.05 µM | CCN(CC)Cc1ccc(C(C)O[C@@H]2O[C@@H]3O[C@@]4(C)CC[C@H]5[C@H](C)CC[C@@H]([C@H]2C)[C@@]35OO4)cc1O (stereo partly drawn) [Compound 47, 2-((diethylamino)methyl)-5-(1-(((3R,5aS,6R,8aS, 9R,10R,12R, 12aR)-3,6,9-trimethyldeca-hydro-12H-3,12-epoxy[1,2]dioxepino[4,3-i]isochromen-10-yl)oxy)ethyl) phenol]
 |  | 0.0658 µM | 1.5 µM | CC(O[C@H]1O[C@@H]2O[C@@]3(C)CC[C@H]4[C@H](C)CC[C@@H]([C@H]1C)[C@@]24OO3)c1ccc(C(=O)O)cc1Cl (stereo partly drawn) [Compound 179, 3-chloro-4-(1-(((3R,5aS,6R,8aS, 9R,10S,12R, 12aR)-3,6,9-trimethyldeca-hydro-12H-3,12-epoxy[1,2]dioxepino[4,3-i]isochromen-10-yl)oxy)ethyl) benzoic acid]
 |  | 0.0156 µM | 5.5 µM | C[C@H]1[C@@H](Oc2ccc(C(C)(C)C(=O)O)cc2)O[C@@H]2O[C@@]3(C)CC[C@H]4[C@H](C)CC[C@@H]1[C@@]24OO3 [Compound 126, 2-methyl-2-(4-(((3R,5aS,6R,8aS, 9R,10S,12R, 12aR)-3,6,9-trimethyldeca-hydro-12H-3,12-epoxy[1,2]dioxepino[4,3-i]isochromen-10-yl)oxy)phenyl) propanoic acid]

The remaining lines, values behind:

SMILES | IC50 (in vitro [1]) | EC50 (HL-60 [2]) | EC50 (HL-60 [3]) | IC50 (in vitro [4])
C[C@H]1[C@@H](O[C@H]2C[C@@H](C(=O)N[C@H](C(=O)O)c3ccc(C(F)(F)F)cc3)C2)O[C@@H]2O[C@@]3(C)CC[C@H]4[C@H](C)CC[C@@H]1[C@@]24OO3 [Compound 257, (S)-2-(4-(trifluoromethyl)phenyl)-2-((1R,3R)-3-(((3R,5aS,6R,8aS, 9R,10S,12R, 12aR)-3,6,9-trimethyldeca-hydro-12H-3,12-epoxy[1,2]dioxepino[4,3-i]isochromen-10-yl)oxy)cyclo-butane-1-carboxamido) acetic acid] | 11.5 µM | 3.21 µM |  | 
C[C@H]1[C@@H](Oc2ccc(C(=O)N[C@H]3CCC[C@H]3C(=O)O)cc2)O[C@@H]2O[C@@]3(C)CC[C@H]4[C@H](C)CC[C@@H]1[C@@]24OO3 [Compound 187, (1R,2S)-2-(4-(((3R,5aS,6R,8aS, 9R,10S,12R, 12aR)-3,6,9-trimethyldeca-hydro-12H-3,12-epoxy[1,2]dioxepino[4,3-i]isochromen-10-yl)oxy)benzamido) cyclopentane-1-carboxylic acid] | 2.4 µM | 0.0333 µM |  | 
C[C@H]1[C@@H](OC(C)(C)[C@H]2C[C@@H](C(=O)O)C2)O[C@@H]2O[C@@]3(C)CC[C@H]4[C@H](C)CC[C@@H]1[C@@]24OO3 [Compound 206, (1R,3s)-3-(2-(((3R,5aS,6R,8aS, 9R,10S,12R, 12aR)-3,6,9-trimethyldeca-hydro-12H-3,12-epoxy[1,2]dioxepino[4,3-i]isochromen-10-yl)oxy)propan-2-yl)cyclobutane-1-carboxylic acid] | > 20 µM | 3.83 µM |  | 
C[C@H]1[C@@H](O[C@H]2CC[C@@H](C(=O)N[C@H]3CC[C@@H](C(=O)O)C3)CC2)O[C@@H]2O[C@@]3(C)CC[C@H]4[C@H](C)CC[C@@H]1[C@@]24OO3 [Compound 202, (1R,3S)-3-((1R,4R)-4-(((3R,5aS,6R,8aS, 9R,10S,12R, 12aR)-3,6,9-trimethyldeca-hydro-12H-3,12-epoxy[1,2]dioxepino[4,3-i]isochromen-10-yl)oxy)cyclo-hexane-1-carboxamido) cyclopentane-carboxylic acid] |  | 4.01 µM |  | 
C[C@H]1[C@@H](Oc2ccc(C(=O)N[C@H]3C[C@@H](C(=O)O)C3)cc2)O[C@@H]2O[C@@]3(C)CC[C@H]4[C@H](C)CC[C@@H]1[C@@]24OO3 [Compound 233, (1R,3s)-3-(4-(((3R,5aS,6R,8aS, 9R,10S,12R, 12aR)-3,6,9-trimethyldeca-hydro-12H-3,12-epoxy[1,2]dioxepino[4,3-i]isochromen-10-yl)oxy)benzamido) cyclobutane-1-carboxylic acid] |  | 0.0936 µM |  | 
C[C@H]1[C@@H](Oc2ccc(-c3nn[nH]n3)cc2)O[C@@H]2O[C@@]3(C)CC[C@H]4[C@H](C)CC[C@@H]1[C@@]24OO3 [Compound 73, 5-(4-(((3R,5aS,6R, 8aS,9R,10S,12R, 12aR)-3,6,9-trimethyldeca-hydro-12H-3,12-epoxy[1,2]dioxepino[4,3-i]isochromen-10-yl)oxy)phenyl)-2H-tetrazole] |  |  | 0.0346 µM | 0.0319 µM
C[C@H]1[C@@H](Oc2ccc(C(F)(F)C(=O)O)cc2)O[C@@H]2O[C@@]3(C)CC[C@H]4[C@H](C)CC[C@@H]1[C@@]24OO3 [Compound 171, 2,2-difluoro-2-(4-(((3R,5aS,6R,8aS, 9R,10S,12R, 12aR)-3,6,9-trimethyldeca-hydro-12H-3,12-epoxy[1,2]dioxepino[4,3-i]isochromen-10-yl)oxy)phenyl) acetic acid] |  |  | 7.07 µM | > 20 µM
C[C@H]1[C@@H](OC[C@@H]2CCC[C@H](C(=O)O)C2)O[C@@H]2O[C@@]3(C)CC[C@H]4[C@H](C)CC[C@@H]1[C@@]24OO3 [Compound 138, (1S,3R)-3-((((3R,5aS,6R, 8aS,9R,10S,12R, 12aR)-3,6,9-trimethyldeca-hydro-12H-3,12-epoxy[1,2]dioxepino[4,3-i]isochromen-10-yl)oxy)methyl) cyclohexane-1-carboxylic acid] |  |  | 0.12 µM | > 20 µM
C[C@H]1[C@@H](Oc2ccc(C(=O)N[C@H](C(=O)O)C(C)(C)C)cc2)O[C@@H]2O[C@@]3(C)CC[C@H]4[C@H](C)CC[C@@H]1[C@@]24OO3 [Compound 184, (S)-3,3-dimethyl-2-(4-(((3R,5aS,6R,8aS, 9R,10S,12R, 12aR)-3,6,9-trimethyldeca-hydro-12H-3,12-epoxy[1,2]dioxepino[4,3-i]isochromen-10-yl)oxy)benzamido) butanoic acid] |  |  | 0.017 µM | 0.8 µM
